{"source": "paper PMC9067936", "about": "“SHIP164 is a chorein motif lipid transfer protein that controls endosome–Golgi membrane traffic” (The Journal of Cell Biology, 2022)", "target": "T1, 3XFLAG-SHIP164Δ901–1099 (Homo sapiens, UniProt A0JNW5, DEL901-1099)", "T1 construct": "gene BLTP3B; residues 901-1099 (predicted unstructured) deleted; N-terminal 3xFLAG tag kept; expressed in Expi293F; tail-to-tail dimer in vitro", "T1 sequence (A0JNW5 with tags, fused parts or gaps DEL901-1099)": "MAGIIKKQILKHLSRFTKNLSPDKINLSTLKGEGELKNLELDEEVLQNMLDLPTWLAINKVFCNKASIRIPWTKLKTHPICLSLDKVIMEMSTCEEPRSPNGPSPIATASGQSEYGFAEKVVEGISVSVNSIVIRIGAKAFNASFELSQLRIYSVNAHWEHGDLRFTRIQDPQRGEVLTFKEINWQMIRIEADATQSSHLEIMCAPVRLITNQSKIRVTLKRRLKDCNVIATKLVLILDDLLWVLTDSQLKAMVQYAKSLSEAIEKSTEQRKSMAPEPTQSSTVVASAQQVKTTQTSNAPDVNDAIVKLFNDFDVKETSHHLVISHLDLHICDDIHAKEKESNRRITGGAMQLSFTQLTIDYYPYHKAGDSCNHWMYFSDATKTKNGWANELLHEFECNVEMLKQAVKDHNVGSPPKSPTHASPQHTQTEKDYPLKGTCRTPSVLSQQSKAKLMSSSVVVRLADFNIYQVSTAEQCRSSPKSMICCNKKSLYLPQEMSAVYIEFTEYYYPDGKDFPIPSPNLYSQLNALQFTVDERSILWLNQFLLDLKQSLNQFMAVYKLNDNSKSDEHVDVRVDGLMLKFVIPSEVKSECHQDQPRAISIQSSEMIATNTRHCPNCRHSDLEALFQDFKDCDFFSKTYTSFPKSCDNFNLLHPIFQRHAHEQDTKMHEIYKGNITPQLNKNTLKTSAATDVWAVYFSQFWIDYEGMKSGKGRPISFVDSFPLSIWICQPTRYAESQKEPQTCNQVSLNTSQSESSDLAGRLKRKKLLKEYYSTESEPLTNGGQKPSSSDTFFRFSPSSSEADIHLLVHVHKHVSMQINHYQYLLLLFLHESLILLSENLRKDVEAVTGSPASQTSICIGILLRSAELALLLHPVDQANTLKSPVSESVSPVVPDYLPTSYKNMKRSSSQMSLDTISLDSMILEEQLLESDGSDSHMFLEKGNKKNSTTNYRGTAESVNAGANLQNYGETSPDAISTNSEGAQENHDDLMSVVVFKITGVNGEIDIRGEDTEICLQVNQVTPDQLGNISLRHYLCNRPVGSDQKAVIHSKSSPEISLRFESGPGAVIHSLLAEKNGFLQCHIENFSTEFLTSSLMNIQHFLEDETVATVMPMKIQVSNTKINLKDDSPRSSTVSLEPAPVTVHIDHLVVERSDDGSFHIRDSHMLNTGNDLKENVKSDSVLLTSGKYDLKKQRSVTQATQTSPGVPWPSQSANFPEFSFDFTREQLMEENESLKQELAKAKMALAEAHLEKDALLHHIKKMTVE", "test": "native gel co-migration, NBD fluorescence calibrated with E-Syt2 standard curve", "format": "binding", "conditions": "0.2 mM NBD-PE, 2 h on ice; labelled compound; stoichiometry estimate", "data": [{"compound": "CCCCCCCC/C=C\\CCCCCCCC(=O)OC[C@H](COP(=O)(O)OCCNc1ccc([N+](=O)[O-])c2nonc12)OC(=O)CCCCCCC/C=C\\CCCCCCCC", "note": "[NBD-PE]", "values": [{"measurement": "lipids per SHIP164 molecule", "result": "~ 8 lipids per protein molecule"}]}]}
